Laboratory results from PubChem BioAssay AID1259407 (Chemical Carcinogenesis Research Information System (CCRIS), 2018).
Active and inactive are the calls of the source. How the calls were made is not given here.

Test system: CCRIS mutagenicity, Ames/micronucleus/aberration tests
Assay: CCRIS mutagenicity studies

SMILES: Nc1ccc2cc3ccccc3cc2c1
- mutagenic call (Test System: AMES SALMONELLA TYPHIMURIUM, Strain/Indicator: TA100, Metabolic Activation: RAT, LIVER, S-9, AROCLOR 1254 OR PHENOBARBITOL, Method: STANDARD PLATE): active; positive
- mutagenic call (Test System: AMES SALMONELLA TYPHIMURIUM, Strain/Indicator: TA100, Metabolic Activation: RAT, LIVER, S-9, PHENOBARBITAL, Method: STANDARD PLATE): active; positive
- mutagenic call (Test System: AMES SALMONELLA TYPHIMURIUM, Strain/Indicator: TA1535 (PSK1002), Metabolic Activation: RAT, LIVER, S-9, AROCLOR 1254, Method: PREINCUBATION): active; positive
- mutagenic call (Test System: AMES SALMONELLA TYPHIMURIUM, Strain/Indicator: TA1535, Metabolic Activation: NONE, Method: SPIRAL ASSAY): inactive; negative
- mutagenic call (Test System: AMES SALMONELLA TYPHIMURIUM, Strain/Indicator: TA1535, Metabolic Activation: RAT, LIVER, S-9, AROCLOR 1254 (2%), Method: STANDARD PLATE): inactive; negative
- mutagenic call (Test System: AMES SALMONELLA TYPHIMURIUM, Strain/Indicator: TA1535, Metabolic Activation: RAT, LIVER, S-9, AROCLOR 1254, Method: SPIRAL ASSAY): active; positive
- mutagenic call (Test System: AMES SALMONELLA TYPHIMURIUM, Strain/Indicator: TA1535, Metabolic Activation: RAT, LIVER, S-9, AROCLOR 1254, Method: STANDARD PLATE): active; positive
- mutagenic call (Test System: AMES SALMONELLA TYPHIMURIUM, Strain/Indicator: TA1535, Metabolic Activation: RAT, LIVER, S-9, AROCLOR 1254 OR PHENOBARBITOL, Method: STANDARD PLATE): active; positive
- mutagenic call (Test System: AMES SALMONELLA TYPHIMURIUM, Strain/Indicator: TA1535, Metabolic Activation: RAT, LIVER, S-9, PHENOBARBITAL, Method: STANDARD PLATE): active; positive
- mutagenic call (Test System: AMES SALMONELLA TYPHIMURIUM, Strain/Indicator: TA1537, Metabolic Activation: NONE, Method: SPIRAL ASSAY): inactive; negative
- mutagenic call (Test System: AMES SALMONELLA TYPHIMURIUM, Strain/Indicator: TA1537, Metabolic Activation: NONE, Method: STANDARD PLATE): inactive; negative
- mutagenic call (Test System: AMES SALMONELLA TYPHIMURIUM, Strain/Indicator: TA1537, Metabolic Activation: RAT, LIVER, S-9, AROCLOR 1254 (2%), Method: STANDARD PLATE): active; positive
- mutagenic call (Test System: AMES SALMONELLA TYPHIMURIUM, Strain/Indicator: TA1537, Metabolic Activation: RAT, LIVER, S-9, AROCLOR 1254, Method: SPIRAL ASSAY): active; positive
- mutagenic call (Test System: AMES SALMONELLA TYPHIMURIUM, Strain/Indicator: TA1537, Metabolic Activation: RAT, LIVER, S-9, AROCLOR 1254, Method: STANDARD PLATE): active; positive
- mutagenic call (Test System: AMES SALMONELLA TYPHIMURIUM, Strain/Indicator: TA1537, Metabolic Activation: RAT, LIVER, S-9, AROCLOR 1254 OR PHENOBARBITOL, Method: STANDARD PLATE): active; positive
- mutagenic call (Test System: AMES SALMONELLA TYPHIMURIUM, Strain/Indicator: TA1538, Metabolic Activation: NONE, Method: STANDARD PLATE): inactive; negative
- mutagenic call (Test System: AMES SALMONELLA TYPHIMURIUM, Strain/Indicator: TA1538, Metabolic Activation: RAT, LIVER, S-9, AROCLOR 1254, Method: STANDARD PLATE): active; positive
- mutagenic call (Test System: AMES SALMONELLA TYPHIMURIUM, Strain/Indicator: TA1538, Metabolic Activation: RAT, LIVER, S-9, AROCLOR 1254 OR PHENOBARBITOL, Method: STANDARD PLATE): active; positive
- mutagenic call (Test System: AMES SALMONELLA TYPHIMURIUM, Strain/Indicator: TA1538, Metabolic Activation: RAT, LIVER, S-9, PHENOBARBITAL, Method: STANDARD PLATE): active; positive
- mutagenic call (Test System: AMES SALMONELLA TYPHIMURIUM, Strain/Indicator: YG1012, Metabolic Activation: RAT, LIVER, S-9, PHENOBARBITAL AND 5,6-BENZOFLAVONE, Method: PREINCUBATION): active; positive
- mutagenic call (Test System: AMES SALMONELLA TYPHIMURIUM, Strain/Indicator: YG1019, Metabolic Activation: RAT, LIVER, S-9, PHENOBARBITAL AND 5,6-BENZOFLAVONE, Method: PREINCUBATION): active; positive
- mutagenic call (Test System: AMES SALMONELLA TYPHIMURIUM, Strain/Indicator: YG1020, Metabolic Activation: RAT, LIVER, S-9, PHENOBARBITAL AND 5,6-BENZOFLAVONE, Method: PREINCUBATION): active; positive
- mutagenic call (Test System: AMES SALMONELLA TYPHIMURIUM, Strain/Indicator: YG1024, Metabolic Activation: RAT, LIVER, S-9, PHENOBARBITAL AND 5,6-BENZOFLAVONE, Method: PREINCUBATION): active; positive
- mutagenic call (Test System: AMES SALMONELLA TYPHIMURIUM, Strain/Indicator: YG1025, Metabolic Activation: RAT, LIVER, S-9, PHENOBARBITAL AND 5,6-BENZOFLAVONE, Method: PREINCUBATION): active; positive
- mutagenic call (Test System: AMES SALMONELLA TYPHIMURIUM, Strain/Indicator: YG1029, Metabolic Activation: RAT, LIVER, S-9, PHENOBARBITAL AND 5,6-BENZOFLAVONE, Method: PREINCUBATION): active; positive
- mutagenic call (Test System: Ames Salmonella typhimurium, Strain/Indicator: YG7108pin3ERb5, Metabolic Activation: None, Method: Standard plate): active; positive
- mutagenic call (Test System: CHINESE HAMSTER OVARY, Strain/Indicator: CHO-K1-BH4 (HGPRT), Metabolic Activation: RAT, LIVER, S-9, AROCLOR, Method: SUSPENSION/PLATE): active; positive
- mutagenic call (Test System: E. COLI, Strain/Indicator: WP2 UVRA, Metabolic Activation: NONE, Method: STANDARD PLATE): inactive; negative
- mutagenic call (Test System: MOUSE LYMPHOMA, Strain/Indicator: L5178Y (TK+/TK-), Metabolic Activation: NONE, Method: SUSPENSION/PLATE): inactive; negative
- mutagenic call (Test System: MOUSE LYMPHOMA, Strain/Indicator: L5178Y (TK+/TK-), Metabolic Activation: RAT, LIVER, S-9, AROCLOR 1254, Method: SUSPENSION/PLATE): active; positive
